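At the GI50, growth is halved. At the TGI there is no net growth.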
Experiments:
Assay in all cases: inhibition of tumour cell growth, NCI panel, 384-well format
786-0 renal = test system: 786-0 renal
A498 renal = test system: A498 renal
BT-549 breast = test system: BT-549 breast
CCRF-CEM leukemia = test system: CCRF-CEM leukemia
COLO 205 colon = test system: COLO 205 colon
HCC-2998 colon = test system: HCC-2998 colon
HCT-15 colon = test system: HCT-15 colon
HL-60(TB) leukemia = test system: HL-60(TB) leukemia
HOP-62 NSCLC = test system: HOP-62 NSCLC
HT29 colon = test system: HT29 colon
IGROV1 ovarian = test system: IGROV1 ovarian
KM12 colon = test system: KM12 colon
LOX IMVI melanoma = test system: LOX IMVI melanoma
M14 melanoma = test system: M14 melanoma
MALME-3M melanoma = test system: MALME-3M melanoma
MDA-MB-231 breast = test system: MDA-MB-231 breast
MDA-MB-435 melanoma = test system: MDA-MB-435 melanoma
MDA-MB-468 breast = test system: MDA-MB-468 breast
MOLT-4 leukemia = test system: MOLT-4 leukemia
NCI-H226 lung = test system: NCI-H226 lung
NCI-H23 lung = test system: NCI-H23 lung
NCI-H322M lung = test system: NCI-H322M lung
NCI-H460 NSCLC = test system: NCI-H460 NSCLC
NCI-H522 lung = test system: NCI-H522 lung
NCI/ADR-RES ovarian = test system: NCI/ADR-RES ovarian
OVCAR-3 ovarian = test system: OVCAR-3 ovarian
OVCAR-4 ovarian = test system: OVCAR-4 ovarian
OVCAR-8 ovarian = test system: OVCAR-8 ovarian
RPMI-8226 leukemia = test system: RPMI-8226 leukemia
RXF 393 renal = test system: RXF 393 renal
SF-268 CNS = test system: SF-268 CNS
SF-295 CNS = test system: SF-295 CNS
SF-539 CNS = test system: SF-539 CNS
SK-MEL-2 melanoma = test system: SK-MEL-2 melanoma
SK-MEL-28 melanoma = test system: SK-MEL-28 melanoma
SK-MEL-5 melanoma = test system: SK-MEL-5 melanoma
SK-OV-3 ovarian = test system: SK-OV-3 ovarian
SN12C renal = test system: SN12C renal
SNB-19 CNS = test system: SNB-19 CNS
SR leukemia = test system: SR leukemia
TK-10 renal = test system: TK-10 renal
U251 glioblastoma = test system: U251 glioblastoma
UACC-257 melanoma = test system: UACC-257 melanoma
UACC-62 melanoma = test system: UACC-62 melanoma
UO-31 renal = test system: UO-31 renal

COc1ncnn2ccc(-c3cnc4nc(C)n(Cc5nnc(C(C)F)o5)c4c3)c12 (stereo not given)
GI50 (786-0 renal): 116 nM | TGI (786-0 renal): 252 nM | GI50 (A498 renal): 42.6 nM | TGI (A498 renal): 187 nM | GI50 (BT-549 breast): 16.9 nM | TGI (BT-549 breast): 49.9 nM | GI50 (CCRF-CEM leukemia): 21.1 nM | TGI (CCRF-CEM leukemia): 41.9 nM | GI50 (COLO 205 colon): 26.8 nM | TGI (COLO 205 colon): 67.5 nM | GI50 (HCC-2998 colon): 41.1 nM | TGI (HCC-2998 colon): 196 nM | GI50 (HCT-15 colon): 33 nM | TGI (HCT-15 colon): 147 nM | GI50 (HL-60(TB) leukemia): 51.5 nM | TGI (HL-60(TB) leukemia): 156 nM | GI50 (HOP-62 NSCLC): 27.5 nM | TGI (HOP-62 NSCLC): 122 nM | GI50 (HT29 colon): 142 nM | TGI (HT29 colon): 284 nM | GI50 (IGROV1 ovarian): 26.5 nM | TGI (IGROV1 ovarian): 135 nM | GI50 (KM12 colon): 24.8 nM | TGI (KM12 colon): 95.5 nM | GI50 (LOX IMVI melanoma): 58.3 nM | TGI (LOX IMVI melanoma): 161 nM | GI50 (M14 melanoma): 185 nM | TGI (M14 melanoma): 334 nM | GI50 (MALME-3M melanoma): 95.6 nM | TGI (MALME-3M melanoma): 223 nM | GI50 (MDA-MB-231 breast): 77.9 nM | TGI (MDA-MB-231 breast): 415 nM | GI50 (MDA-MB-435 melanoma): 67.3 nM | TGI (MDA-MB-435 melanoma): 236 nM | GI50 (MDA-MB-468 breast): 17.6 nM | TGI (MDA-MB-468 breast): 43.4 nM | GI50 (MOLT-4 leukemia): 18.5 nM | TGI (MOLT-4 leukemia): 33.4 nM | GI50 (NCI-H226 lung): 117 nM | TGI (NCI-H226 lung): 283 nM | GI50 (NCI-H23 lung): 19.7 nM | TGI (NCI-H23 lung): 46.9 nM | GI50 (NCI-H322M lung): 82.2 nM | TGI (NCI-H322M lung): 815 nM | GI50 (NCI-H460 NSCLC): 42.6 nM | TGI (NCI-H460 NSCLC): 163 nM | GI50 (NCI-H522 lung): 14.8 nM | TGI (NCI-H522 lung): 52 nM | GI50 (NCI/ADR-RES ovarian): 154 nM | TGI (NCI/ADR-RES ovarian): 415 nM | GI50 (OVCAR-3 ovarian): 17.2 nM | TGI (OVCAR-3 ovarian): 41.4 nM | GI50 (OVCAR-4 ovarian): 57.2 nM | TGI (OVCAR-4 ovarian): 215 nM | GI50 (OVCAR-8 ovarian): 40.2 nM | TGI (OVCAR-8 ovarian): 256 nM | GI50 (RPMI-8226 leukemia): 40.5 nM | TGI (RPMI-8226 leukemia): 95.8 nM | GI50 (RXF 393 renal): 56 nM | TGI (RXF 393 renal): 188 nM | GI50 (SF-268 CNS): 133 nM | TGI (SF-268 CNS): 400 nM | GI50 (SF-295 CNS): 110 nM | TGI (SF-295 CNS): 307 nM | GI50 (SF-539 CNS): 126 nM | TGI (SF-539 CNS): 286 nM | GI50 (SK-MEL-2 melanoma): 29.4 nM | TGI (SK-MEL-2 melanoma): 77.2 nM | GI50 (SK-MEL-28 melanoma): 51.9 nM | TGI (SK-MEL-28 melanoma): 184 nM | GI50 (SK-MEL-5 melanoma): 15.4 nM | TGI (SK-MEL-5 melanoma): 45 nM | GI50 (SK-OV-3 ovarian): 28.7 nM | TGI (SK-OV-3 ovarian): 132 nM | GI50 (SN12C renal): 43.5 nM | TGI (SN12C renal): 215 nM | GI50 (SNB-19 CNS): 37.1 nM | TGI (SNB-19 CNS): > 100000 nM | GI50 (SR leukemia): 15.5 nM | TGI (SR leukemia): 29.4 nM | GI50 (TK-10 renal): 44.7 nM | TGI (TK-10 renal): 261 nM | GI50 (U251 glioblastoma): 43.2 nM | TGI (U251 glioblastoma): 338 nM | GI50 (UACC-257 melanoma): 20.1 nM | TGI (UACC-257 melanoma): 56.6 nM | GI50 (UACC-62 melanoma): 24.9 nM | TGI (UACC-62 melanoma): 80.7 nM | GI50 (UO-31 renal): 103 nM | TGI (UO-31 renal): 270 nM

Source: PubChem BioAssay (NCI)
